The values that follow come from patent US9326511B2, “Methods of inhibiting microbial biofilms” (priority 2008, dated 2016).

Converted amounts (≈) assume the structure as drawn. “Also recorded” adds a separate entry of the source. Read-outs that look alike come from different tables or passages of the source. Marks after values point to notes of the source that are not given here.

Data set [1] can be described thus: Chemical stability, qualitative stress tests (HPLC, LC-MS). The data set is classed as physicochemical. The following applies: solid, aqueous solution, PBS, 7 days each at 50, 70 and 90° C. On the procedure:
The following HPLC methodology was established for the analysis of the exemplary compounds of the invention.
The method involves detection by UV at a wavelength of 420 nm, which is very specific for these compounds. In order to monitor impurities not related to the porphyrin structure (and therefore not absorbing at 420 nm) UV spectra of the whole chromatograms were also recorded between 200 nm and 700 nm by DAD (diode array detector) in certain experiments. • Column: Zorbax Phenyl, 250×4.6 mm, 5 µm • Eluent A: 1.5 g sodium dodecylsulfate+1 mL formic acid in 1000 mL water • Eluent B: 1.5 g sodium dodecylsulfate+1 mL formic acid in 200 mL water+800 mL tetrahydrofurane • Gradient:
• Flow rate: 0.4 mL/min • Detection: 420 nm • Column temperature: 25° C. • Injection volume: 10 μl • Solutions: Porphyrin derivatives were dissolved in eluent A to give a final concentration of approximately 0.3 mg/ml.
Qualitative stress tests were undertaken on the exemplary compounds of the invention. Analysis was undertaken by HPLC & LC-MS. The compounds were stress tested in solid form, in an aqueous solution and a solution made up in phosphate-buffered saline buffer. The samples were initially incubated for 7 days at 50° C. and a sample removed for testing. The samples were then incubated for a further 7 days at 70° C., samples removed as before and the samples incubated further for 7 days at 90° C. HPLC analysis of freshly prepared solutions was undertaken and compared to the samples after 7, 14 and 21 days incubation. A visual comparison of the chromatograms was then undertaken and the content of the main products and by-products as area percentage values determined (see FIG. 4).

In data set [2] the test system is E. coli cells. In words: Binding of compounds with bacterial cells (spectrofluorimetric analysis of cell lysates). The following applies: 5 min incubation. On the procedure:
[…] At the end of the incubation period, the cells were sedimented by centrifugation to remove the fraction of unbound test compound and the cell pellet was resuspended in 2 ml of 2% SDS to obtain cell lysates. After overnight incubation with SDS, the amount of cell-bound test compound was estimated by spectrofluorimetric analysis of the cell lysates. The concentration of the compounds in the cell lysates was calculated by measuring the intensities at the maximum of the emission fluorescence spectrum and interpolating the data on a calibration plot. The amount of cell-bound test compound was expressed as nmoles of compound per mg of cell protein. The protein concentration was determined by the method of Lowry (Lowry et al., 1951, J. Biol. Chem. 193:265-275).
All experiments were run in triplicate and the results represent the average of 3 determinations with standard deviations.

The subject of data set [3] is stringent S. aureus SH1000 cultures. In words: Time-kill against cultures expressing the stringent response (induced with mupirocin). The data set is classed as cell-based, Staphylococcus aureus. The following applies: stringent response induced with mupirocin, agents at 4×MIC. The method, then:
(§1) Methods: MICs were determined for planktonic cultures by broth microdilution according to British Society for Antimicrobial Chemotherapy (BSAC) guidelines. Biofilm MICs (bMIC) and minimum biofilm eradication concentrations (MBECs) were determined using the Calgary biofilm device. The effect of Compound 10 on the viability of cold culture cells was determined by growing S. aureus SH1000 to early exponential phase at 37° C. and resuspending the cells in pre-chilled media, where they were maintained in the presence and absence of Compound 10 and control agents. The effect of Compound 10 on slow growing cells expressing the stringent response was also determined by growing cultures to early log phase and the stringent response induced by the addition of the isoleucyl-tRNA synthetase inhibitor mupirocin. Compound 10 and control agents were then added and samples recovered for viable cell determinations.
When nutrients become limiting for growth bacteria adjust their metabolism from one that supports growth to one that provides for long survival in the absence of nutrients. In many bacteria a key facilitator of this physiological switch, known as the stringent response, is accumulation of guanosine […] and pentaphosphate (Traxler et al., 2008). The antibiotic mupirocin is a strong inducer of the stringent response in S. aureus and effectively causes starvation of charged isoleucyl tRNA by potent inhibition of isoleucy ItRNA synthetase (IRS) (Oliva et al., 2003). The activity of XF drugs against S. aureus SH1000 prevented from growing by the addition of mupirocin (Oliva et al., 2003), was therefore examined (FIG. 10). As an alternative method for arresting growth, bacteria were suspended in cold growth medium (Mascio et al., 2007) and the bactericidal activity of XF drugs was also determined under these conditions (FIG. 11).
(§2) The anti-staphylococcal activities of Compound 10, Compound 12 and a range of comparator agents against slow-growing cultures of Staphylococcus aureus were studied using standard time-kill methodology (Oliva et al. 2003, Hobbs et al. 2008). Staphylococcus aureus SH1000 cultures were grown to early exponential phase (OD600 nm of 0.2) in Mueller-Hinton broth (MHB) before being exposed to antibacterial agents at 4×MIC. An untreated culture served as the negative control. The experiments were undertaken in triplicate.
The antibiotic mupirocin is a strong inducer of the stringent response in S. aureus and causes starvation of charged isoleucyl tRNA by potent inhibition of isoleucyl tRNA synthetase (IRS) (Oliva et al. 2003, Cassels et al. 1995) Stringency was induced in SH1000 cultures by adding mupirocin (4 mg/L) to cells in the early exponential growth phase (OD600 nm of 0.2) (Oliva et al. 2003, Cassels et al. 1995). Cultures were incubated with mupirocin for 30 minutes before sampling began. Cultures were maintained at 37° C., and samples were taken at 30 minute intervals for 300 minutes, serially diluted in phosphate buffered saline (PBS) and diluted culture was spread on Mueller-Hinton agar and was incubated at 37° C. for 18-24 hours before the number of CFU were counted.

Data set [4] relates to S. aureus SH1000. Put plainly: Planktonic MIC by broth microdilution (BSAC guidelines). The data set is classed as cell-based, Staphylococcus aureus. On the procedure:
as §1
A general note: Broth dilution looks for growth in wells or tubes with falling amounts of substance.

Data set [5] relates to S. aureus SH1000 biofilms. Put plainly: Biofilm MIC and minimum biofilm eradication concentration, Calgary Biofilm Device. The data set is classed as cell-based, Staphylococcus aureus. The following applies: Staphylococcus aureus, SH1000BIOFILMS, read-out: bMIC. On the procedure: as §1
Biofilm MICs and minimum biofilm eradication concentrations (MBEC) were determined in the Calgary Biofilm Device (Nunc Inc, Roskilde, Denmark) as described by Miller et al., 2005. This involves the following steps. Aliquots (200 μL) of exponential phase cultures of strain SH1000 were added to each well of a 96-well microtitre tray. The lid assembly, which has 96 polystyrene pegs corresponding to each well, was then replaced and the system incubated for 24 hours at 37° C. on a rocking platform. Following this a biofilm of approximately 10^7 cfu matured on each peg. The lid was then washed twice in phosphate-buffered saline (PBS) to remove residual planktonic growth and then placed into a microtitre tray with fresh media containing doubling dilutions of the test antibiotic. The system was then incubated for 24 hours at 37° C. on a rocking platform. The MIC was defined as the lowest concentration of antibiotic completely inhibiting visible growth after this incubation. After the MIC was recorded, the lid assembly was again washed twice in PBS to remove planktonic cells and remaining antibiotic and then placed into fresh drug-free media. The system was incubated for a further 24 hours and the MBEC was defined as the lowest concentration of antibiotic completely inhibiting the re-establishment of planktonic growth.

For data set [6], the system named is S. aureus SH1000 cold cultures. Put plainly: Time-kill against cold cultures (4° C.). The data set is classed as cell-based, Staphylococcus aureus. The following applies: cold culture held at 4° C. for 5 hours, agents at 4×MIC. The method, then:
as §1
The effect of XF drugs on the viability of cold culture cells was determined by growing S. aureus SH1000 to early exponential phase at 37° C., harvesting the cells by centrifugation (5,000×g, 10 min.) and resuspending them in pre-chilled media where they were maintained in the presence and absence of XF drugs and control agents for 5 hours. […] (FIG. 11).
as §2
Cold cultures were prepared by growing SH1000 cells to early exponential phase (OD600 nm of 0.2) at 37° C. Cultures were then centrifuged and the cell pellet was resuspended in MHB pre-chilled to 4° C. The killing kinetics of antimicrobial agents were studied as described in the section above, with the exception that cultures were maintained at 4° C. over the 5 hour sampling period.

In data set [7] the test system is S. aureus 8325-4. The following applies: previous studies (Oliva et al., 2003); cited from earlier work.
Data set [8] relates to staphylococci. The following applies: cited from earlier work; for MIC Values: literature value (Critchley et al. 2003).
Where [9] appears, read: planktonic S. aureus SH1000 (Table 6).

Consider `CN(C)CCC[N+](C)(C)CCCOc1ccc(-c2c3nc(cc4ccc([nH]4)c(-c4ccc(OCCC[N+](C)(C)CCCN(C)C)cc4)c4nc(cc5ccc2[nH]5)C=C4)C=C3)cc1.[Cl-].[Cl-]` [Compound 8, 5,15-bis-(4-{3-[(3-Dimethylamino-propyl)-dimethyl-ammonio]-propyloxy}-phenyl)-porphyrin dichloride], for which the “Chemical stability under stress” value in data set [1] is “less stable than Compounds 10 and 12”. The Bound compound came out at 0.024 ± 0.01 nmoles/mg cell proteins in data set [2] (0.01 μM compound, 0 washings); 0.009 ± 0.001 nmoles/mg cell proteins in data set [2] (0.01 μM compound, 3 washings); 0.056 ± 0.02 nmoles/mg cell proteins in data set [2] (0.1 μM compound, 0 washings); 0.030 ± 0.02 nmoles/mg cell proteins in data set [2] (0.1 μM compound, 3 washings); 0.522 ± 0.2 nmoles/mg cell proteins in data set [2] (0.5 μM compound, 0 washings); 0.274 ± 0.15 nmoles/mg cell proteins in data set [2] (0.5 μM compound, 3 washings). Also, the Bound compound in data set [2] (1 μM compound, 0 washings) is 3.670 ± 0.7 nmoles/mg cell proteins; in data set [2] (1 μM compound, 3 washings), 2.230 ± 0.8 nmoles/mg cell proteins.
For `C[C@@H]1O[C@@H]1P(=O)(O)O` [Fosfomycin], the “viability / bactericidal activity in time-kill (in words)” value in data set [3] is on record as “no loss of viability; also recorded: completely attenuated”; in data set [6] it was “no loss of viability”. Besides, the MIC in data set [4] (Staphylococcus aureus, planktonic S. aureus SH1000 (Table 5), read-out: MIC) is 16 µg/mL (≈ 116 µM); in data set [4] (setting [9]) it was 16 µg/mL (≈ 116 µM); in data set [5] (24 h, biofilm MIC, S. aureus SH1000, Calgary Biofilm Device, 24 hours (Table 6)), 8 µg/mL (≈ 57.9 µM); in data set [5] (biofilm MIC, S. aureus SH1000, Calgary device (Example H)), 8 µg/mL (≈ 57.9 µM). For the same molecule, the “effect of the stringent response on bactericidal activity” value (from here on “effect of the stringent response”) in data set [7] is given as “completely abolishes the bactericidal activity”.
For the molecule `CN[C@H](CC(C)C)C(=O)N[C@H]1C(=O)N[C@@H](CC(N)=O)C(=O)N[C@H]2C(=O)N[C@H]3C(=O)N[C@H](C(=O)N[C@H](C(=O)O)c4cc(O)cc(O)c4-c4cc3ccc4O)[C@H](O)c3ccc(c(Cl)c3)Oc3cc2cc(c3O[C@@H]2O[C@H](CO)[C@@H](O)[C@H](O)[C@H]2O[C@H]2C[C@](C)(N)[C@H](O)[C@H](C)O2)Oc2ccc(cc2Cl)[C@H]1O` [Vancomycin], the results for the “viability / bactericidal activity in time-kill (in words)” value in data set [3] and in data set [6] were “no loss of viability” and “no loss of viability; also recorded: abolished”, respectively. Further, the MIC came to 1 µg/mL (≈ 0.69 µM) in data set [4] (Staphylococcus aureus, SH1000); 1 µg/mL (≈ 0.69 µM) in data set [4] (setting [9]); 2 µg/mL (≈ 1.38 µM) in data set [5] (24 h); 2 µg/mL (≈ 1.38 µM) in data set [5]. Besides, the “MBC Values” in data set [8] (literature value (Biavasco et al. 1997; Fuchs et al. 2002)) is on record as 4-16^b μg/mL. In addition, the “MIC Values” in data set [8] is recorded as 1^a μg/mL. Further, the “effect of the stringent response” value in data set [7] is listed as “completely abolishes the bactericidal activity”.
As to `CC(=O)NC[C@H]1CN(c2ccc(N3CCOCC3)c(F)c2)C(=O)O1` [Zyvox ® (Linezolid), Linezolid], the “MIC Values” in data set [8] is 4^a μg/mL.
On to `N[C@@H]1CON=C1O` [cycloserine], for which the “effect of the stringent response” value in data set [7] is given as “completely abolishes the bactericidal activity”.
